Reference: patent US20230085307A1, “PYRIDAZINONE COMPOUND AND HERBICIDE” (NISSAN CHEMICAL CORPORATION, priority 2019, published 2023)

How the values were obtained:
blackgrass [1] = test: Test Example 4: herbicidal effect by soil treatment (Table 19, symbol J); type: in vivo, blackgrass (Alopecurus myosuroides); details: AAH 320 g/ha
Procedure, shortened: (§1)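 Soil-surface application: an emulsion agent diluted with water to the predetermined dose is sprayed uniformly over seeds lying under roughly 1.5 cm of sterilized diluvial soil. Boxes stay in a greenhouse at 25° C. to 30° C. Three weeks later, each species is graded on previously defined criteria.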

redroot pigweed [2] = test: Test Example 5: herbicidal effect by foliage application, plastic box (Table 20, symbol N); type: in vivo, redroot pigweed (Amaranthus retroflexus); details: foliage application, AAH 320 g/ha, three weeks after application
Procedure, shortened: (§2)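 Sow seeds spot-wise in sterilized diluvial soil; cover with ~1.5 cm soil. Grow 14 days in greenhouse, 25° C. to 30° C. Spray foliage with emulsion diluted to predetermined amount. Rate effect after 3 weeks.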

persian speedwell [3] = test: Test Example 5: herbicidal effect by foliage application, plastic box (Table 20, symbol R); type: in vivo, Persian speedwell (Veronica persica); details: foliage application, AAH 320 g/ha, three weeks after application
Procedure, shortened: as §2

windgrass [4] = test: Test Example 4: herbicidal effect by soil treatment (Table 19, symbol L); type: in vivo, windgrass (Apera spica-venti); details: AAH 320 g/ha
Procedure, shortened: as §1

rice flat sedge = test: Test Example 3: herbicidal effect by foliage application, Wagner pot (Table 18, symbol E); type: in vivo, rice flat sedge (Cyperus iria); details: 320 g/ha
Procedure, shortened: (§3)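 Plants were sown in alluvial soil held under 0.1–0.5 cm standing water and grown 14 days in a greenhouse at 25–30 °C. An emulsifiable formulation, water-diluted to the set dose, was then sprayed onto the foliage, and effects were scored three weeks later using previously defined criteria.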

windgrass [5] = test: Test Example 5: herbicidal effect by foliage application, plastic box (Table 20, symbol L); type: in vivo, windgrass (Apera spica-venti); details: foliage application, AAH 320 g/ha, three weeks after application
Procedure, shortened: as §2

redroot pigweed [6] = test: Test Example 4: herbicidal effect by soil treatment (Table 19, symbol N); type: in vivo, redroot pigweed (Amaranthus retroflexus); details: AAH 320 g/ha
Procedure, shortened: as §1

velvetleaf [7] = test: Test Example 4: herbicidal effect by soil treatment (Table 19, symbol M); type: in vivo, velvetleaf (Abutilon theophrasti); details: AAH 320 g/ha
Procedure, shortened: as §1

chickweed [8] = test: Test Example 4: herbicidal effect by soil treatment (Table 19, symbol P); type: in vivo, common chickweed (Stellaria media); details: AAH 320 g/ha
Procedure, shortened: as §1

barnyard grass [9] = test: Test Example 5: herbicidal effect by foliage application, plastic box (Table 20, symbol H); type: in vivo, barnyard grass (Echinochloa crus-galli); details: foliage application, AAH 320 g/ha, three weeks after application
Procedure, shortened: as §2

blackgrass [10] = test: Test Example 5: herbicidal effect by foliage application, plastic box (Table 20, symbol J); type: in vivo, blackgrass (Alopecurus myosuroides); details: foliage application, AAH 320 g/ha, three weeks after application
Procedure, shortened: as §2

barnyard grass [11] = test: Test Example 3: herbicidal effect by foliage application, Wagner pot (Table 18, symbol H); type: in vivo, barnyard grass (Echinochloa crus-galli); details: 320 g/ha
Procedure, shortened: as §3

Italian ryegrass [12] = test: Test Example 5: herbicidal effect by foliage application, plastic box (Table 20, symbol K); type: in vivo, Italian ryegrass (Lolium multiflorum); details: foliage application, AAH 320 g/ha, three weeks after application
Procedure, shortened: as §2

Chinese sprangletop = test: Test Example 3: herbicidal effect by foliage application, Wagner pot (Table 18, symbol D); type: in vivo, chinese sprangletop (Leptochloa chinensis); details: 320 g/ha
Procedure, shortened: as §3

wild oat [13] = test: Test Example 4: herbicidal effect by soil treatment (Table 19, symbol I); type: in vivo, wild oat (Avena fatua); details: AAH 320 g/ha
Procedure, shortened: as §1

velvetleaf [14] = test: Test Example 5: herbicidal effect by foliage application, plastic box (Table 20, symbol M); type: in vivo, velvetleaf (Abutilon theophrasti); details: foliage application, AAH 320 g/ha, three weeks after application
Procedure, shortened: as §2

persian speedwell [15] = test: Test Example 4: herbicidal effect by soil treatment (Table 19, symbol R); type: in vivo, Persian speedwell (Veronica persica); details: AAH 320 g/ha
Procedure, shortened: as §1

southern crabgrass [16] = test: Test Example 4: herbicidal effect by soil treatment (Table 19, symbol F); type: in vivo, southern crabgrass (Digitaria ciliaris); details: AAH 320 g/ha
Procedure, shortened: as §1

chickweed [17] = test: Test Example 5: herbicidal effect by foliage application, plastic box (Table 20, symbol P); type: in vivo, common chickweed (Stellaria media); details: foliage application, AAH 320 g/ha, three weeks after application
Procedure, shortened: as §2

Italian ryegrass [18] = test: Test Example 4: herbicidal effect by soil treatment (Table 19, symbol K); type: in vivo, Italian ryegrass (Lolium multiflorum); details: AAH 320 g/ha
Procedure, shortened: as §1

barnyard grass [19] = test: Test Example 4: herbicidal effect by soil treatment (Table 19, symbol H); type: in vivo, barnyard grass (Echinochloa crus-galli); details: AAH 320 g/ha
Procedure, shortened: as §1

wild oat [20] = test: Test Example 5: herbicidal effect by foliage application, plastic box (Table 20, symbol I); type: in vivo, wild oat (Avena fatua); details: foliage application, AAH 320 g/ha, three weeks after application
Procedure, shortened: as §2

green foxtail [21] = test: Test Example 5: herbicidal effect by foliage application, plastic box (Table 20, symbol G); type: in vivo, green foxtail (Setaria viridis); details: foliage application, AAH 320 g/ha, three weeks after application
Procedure, shortened: as §2

lambsquarters [22] = test: Test Example 4: herbicidal effect by soil treatment (Table 19, symbol O); type: in vivo, lambsquarters (Chenopodium album); details: AAH 320 g/ha
Procedure, shortened: as §1

green foxtail [23] = test: Test Example 4: herbicidal effect by soil treatment (Table 19, symbol G); type: in vivo, green foxtail (Setaria viridis); details: AAH 320 g/ha
Procedure, shortened: as §1

southern crabgrass [24] = test: Test Example 5: herbicidal effect by foliage application, plastic box (Table 20, symbol F); type: in vivo, southern crabgrass (Digitaria ciliaris); details: foliage application, AAH 320 g/ha, three weeks after application
Procedure, shortened: as §2

lambsquarters [25] = test: Test Example 5: herbicidal effect by foliage application, plastic box (Table 20, symbol O); type: in vivo, lambsquarters (Chenopodium album); details: foliage application, AAH 320 g/ha, three weeks after application
Procedure, shortened: as §2

SMILES	J: blackgrass, herbicidal effect rating (blackgrass [1])	N: redroot pigweed, herbicidal effect (redroot pigweed [2])	R: persian speedwell, herbicidal effect (persian speedwell [3])	L: windgrass, herbicidal effect rating (windgrass [4])	herbicidal effect on E (rice flat sedge), rating 0-5 (rice flat sedge)	L: windgrass, herbicidal effect (windgrass [5])	N: redroot pigweed, herbicidal effect rating (redroot pigweed [6])	M: velvetleaf, herbicidal effect rating (velvetleaf [7])	P: chickweed, herbicidal effect rating (chickweed [8])	H: barnyard grass, herbicidal effect (barnyard grass [9])	J: blackgrass, herbicidal effect (blackgrass [10])	herbicidal effect on H (barnyard grass), rating 0-5 (barnyard grass [11])	K: Italian ryegrass, herbicidal effect (Italian ryegrass [12])	herbicidal effect on D (Chinese sprangletop), rating 0-5 (Chinese sprangletop)	I: wild oat, herbicidal effect rating (wild oat [13])	M: velvetleaf, herbicidal effect (velvetleaf [14])	R: persian speedwell, herbicidal effect rating (persian speedwell [15])	F: southern crabgrass, herbicidal effect rating (southern crabgrass [16])	P: chickweed, herbicidal effect (chickweed [17])	K: Italian ryegrass, herbicidal effect rating (Italian ryegrass [18])	also measured
C=CCOc1ccc(-c2sc3ccccc3c2-c2c(O)c(C)nn(C)c2=O)cc1 [1-139]	0 (Herbicidal rate of 5% or less (almost no effect))	5 (Herbicidal rate of 90% or more (almost completely withered))	5 (Herbicidal rate of 90% or more (almost completely withered))	3 (Herbicidal rate of 40% or more and less than 70%)	5 (Herbicidal rate of 90% or more (almost completely withered))	5 (Herbicidal rate of 90% or more (almost completely withered))	5 (Herbicidal rate of 90% or more (almost completely withered))	2 (Herbicidal rate of 20% or more and less than 40%)	5 (Herbicidal rate of 90% or more (almost completely withered))	5 (Herbicidal rate of 90% or more (almost completely withered))	4 (Herbicidal rate of 70% or more and less than 90%)	5 (Herbicidal rate of 90% or more (almost completely withered))	5 (Herbicidal rate of 90% or more (almost completely withered))	0 (Herbicidal rate of 5% or less (almost no effect))	0 (Herbicidal rate of 5% or less (almost no effect))	4 (Herbicidal rate of 70% or more and less than 90%)	5 (Herbicidal rate of 90% or more (almost completely withered))	0 (Herbicidal rate of 5% or less (almost no effect))	5 (Herbicidal rate of 90% or more (almost completely withered))	5 (Herbicidal rate of 90% or more (almost completely withered))	H: barnyard grass, herbicidal effect rating (barnyard grass [19]): 4 (Herbicidal rate of 70% or more and less than 90%); I: wild oat, herbicidal effect (wild oat [20]): 4 (Herbicidal rate of 70% or more and less than 90%); G: green foxtail, herbicidal effect (green foxtail [21]): 5 (Herbicidal rate of 90% or more (almost completely withered)); O: lambsquarters, herbicidal effect rating (lambsquarters [22]): 4 (Herbicidal rate of 70% or more and less than 90%); G: green foxtail, herbicidal effect rating (green foxtail [23]): 3 (Herbicidal rate of 40% or more and less than 70%); F: southern crabgrass, herbicidal effect (southern crabgrass [24]): 5 (Herbicidal rate of 90% or more (almost completely withered)); O: lambsquarters, herbicidal effect (lambsquarters [25]): 4 (Herbicidal rate of 70% or more and less than 90%)
COc1nn(C)c(=O)c(-c2c(-c3ccc([N+](=O)[O-])cc3)sc3ccccc23)c1O [1-168]	0 (Herbicidal rate of 5% or less (almost no effect))	5 (Herbicidal rate of 90% or more (almost completely withered))	5 (Herbicidal rate of 90% or more (almost completely withered))	0 (Herbicidal rate of 5% or less (almost no effect))	3 (Herbicidal rate of 40% or more and less than 70%)	0 (Herbicidal rate of 5% or less (almost no effect))	1 (Herbicidal rate of 5% or more and less than 20%)	0 (Herbicidal rate of 5% or less (almost no effect))	4 (Herbicidal rate of 70% or more and less than 90%)	2 (Herbicidal rate of 20% or more and less than 40%)	0 (Herbicidal rate of 5% or less (almost no effect))	0 (Herbicidal rate of 5% or less (almost no effect))	2 (Herbicidal rate of 20% or more and less than 40%)	0 (Herbicidal rate of 5% or less (almost no effect))	0 (Herbicidal rate of 5% or less (almost no effect))	4 (Herbicidal rate of 70% or more and less than 90%)	3 (Herbicidal rate of 40% or more and less than 70%)	0 (Herbicidal rate of 5% or less (almost no effect))	5 (Herbicidal rate of 90% or more (almost completely withered))	0 (Herbicidal rate of 5% or less (almost no effect))	H: barnyard grass, herbicidal effect rating (barnyard grass [19]): 0 (Herbicidal rate of 5% or less (almost no effect)); I: wild oat, herbicidal effect (wild oat [20]): 0 (Herbicidal rate of 5% or less (almost no effect)); G: green foxtail, herbicidal effect (green foxtail [21]): 3 (Herbicidal rate of 40% or more and less than 70%); O: lambsquarters, herbicidal effect rating (lambsquarters [22]): 0 (Herbicidal rate of 5% or less (almost no effect)); G: green foxtail, herbicidal effect rating (green foxtail [23]): 0 (Herbicidal rate of 5% or less (almost no effect)); F: southern crabgrass, herbicidal effect (southern crabgrass [24]): 3 (Herbicidal rate of 40% or more and less than 70%); O: lambsquarters, herbicidal effect (lambsquarters [25]): 4 (Herbicidal rate of 70% or more and less than 90%)
COc1nn(C)c(=O)c(-c2c(-c3ccc(C#N)cc3)sc3ccccc23)c1O [1-170]	0 (Herbicidal rate of 5% or less (almost no effect))	5 (Herbicidal rate of 90% or more (almost completely withered))	5 (Herbicidal rate of 90% or more (almost completely withered))	0 (Herbicidal rate of 5% or less (almost no effect))	5 (Herbicidal rate of 90% or more (almost completely withered))	0 (Herbicidal rate of 5% or less (almost no effect))	5 (Herbicidal rate of 90% or more (almost completely withered))	0 (Herbicidal rate of 5% or less (almost no effect))	4 (Herbicidal rate of 70% or more and less than 90%)	4 (Herbicidal rate of 70% or more and less than 90%)	0 (Herbicidal rate of 5% or less (almost no effect))	2 (Herbicidal rate of 20% or more and less than 40%)	3 (Herbicidal rate of 40% or more and less than 70%)	1 (Herbicidal rate of 5% or more and less than 20%)	0 (Herbicidal rate of 5% or less (almost no effect))	5 (Herbicidal rate of 90% or more (almost completely withered))	5 (Herbicidal rate of 90% or more (almost completely withered))	0 (Herbicidal rate of 5% or less (almost no effect))	5 (Herbicidal rate of 90% or more (almost completely withered))	0 (Herbicidal rate of 5% or less (almost no effect))	H: barnyard grass, herbicidal effect rating (barnyard grass [19]): 0 (Herbicidal rate of 5% or less (almost no effect)); I: wild oat, herbicidal effect (wild oat [20]): 2 (Herbicidal rate of 20% or more and less than 40%); G: green foxtail, herbicidal effect (green foxtail [21]): 5 (Herbicidal rate of 90% or more (almost completely withered)); O: lambsquarters, herbicidal effect rating (lambsquarters [22]): 0 (Herbicidal rate of 5% or less (almost no effect)); G: green foxtail, herbicidal effect rating (green foxtail [23]): 0 (Herbicidal rate of 5% or less (almost no effect)); F: southern crabgrass, herbicidal effect (southern crabgrass [24]): 3 (Herbicidal rate of 40% or more and less than 70%); O: lambsquarters, herbicidal effect (lambsquarters [25]): 5 (Herbicidal rate of 90% or more (almost completely withered))
